Experimental data from patent US9364476B2, “Methods of treating a Bruton's Tyrosine Kinase disease or disorder” (Celgene Avilomics Research, Inc., priority 2011, dated 2016).
Values joined by “and” are separate entries in the source; they are usually repeats but may differ in a detail not shown here. Equal values may be shown once. Read-outs that look alike come from different tables or passages of the source.

Columns and labels:
Btk = Btk (Homo sapiens, UniProt Q06187); settings: enzymatic and cellular assays; cited from earlier work
Chain of Btk (Q06187 whole entry, species assumed): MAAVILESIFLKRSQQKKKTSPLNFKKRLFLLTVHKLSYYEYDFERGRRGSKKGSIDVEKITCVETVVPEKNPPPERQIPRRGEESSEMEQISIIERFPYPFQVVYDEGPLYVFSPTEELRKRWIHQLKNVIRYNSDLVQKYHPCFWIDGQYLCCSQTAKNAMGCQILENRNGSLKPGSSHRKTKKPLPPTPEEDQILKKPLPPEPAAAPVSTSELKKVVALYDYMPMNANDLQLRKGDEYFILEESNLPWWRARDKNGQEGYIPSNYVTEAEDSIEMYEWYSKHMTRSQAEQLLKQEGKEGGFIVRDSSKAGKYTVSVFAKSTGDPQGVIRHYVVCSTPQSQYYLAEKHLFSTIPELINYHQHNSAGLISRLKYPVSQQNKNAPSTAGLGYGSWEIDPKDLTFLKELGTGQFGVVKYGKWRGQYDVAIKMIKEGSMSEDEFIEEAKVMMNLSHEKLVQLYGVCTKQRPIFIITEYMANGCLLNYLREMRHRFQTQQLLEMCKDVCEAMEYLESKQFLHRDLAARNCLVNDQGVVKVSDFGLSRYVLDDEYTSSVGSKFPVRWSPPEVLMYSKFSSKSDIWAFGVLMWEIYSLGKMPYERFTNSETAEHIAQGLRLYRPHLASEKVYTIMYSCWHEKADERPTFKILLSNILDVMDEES

B-cell = settings: cited from earlier work
B-NHL patients = experiment: Dose escalation study: lymph node size in B-NHL patients; format: in vivo, human; settings: dose escalation cohorts
From the text: The doses indicated refer to the patient's starting dose. The numbers at the top of each bar indicate the number of cycles completed for each subject as of the last available lymph node measurement.

[1] = Plasma API levels by LC-MS-MS (PK); format: in vivo, human
Procedure: Plasma API levels were assessed by LC-MS-MS.

Solubility of the API = format: physicochemical
[2] = test system: Relapsed and/or refractory CLL/SLL; experiment: CLL expansion cohort C: disease response; format: in vivo, human
Procedure: After completion of observation for DLTs in Example 1, the accumulated safety, PK, and PD data from Example 1 were evaluated to select a preliminary recommended Phase 2 dose for administration to additional subjects enrolled into an independent and non-randomized diagnosis-specific expansion cohorts in the Diagnosis Specific Expansion Cohorts study. • Cohort A: Relapsed and/or refractory diffuse large B-cell lymphoma (DLBCL); • Cohort B: Relapsed and/or refractory indolent and mantle B-cell lymphomas, Waldenstrom's macroglobulinemia, and other B lymphoproliferative disorders of uncertain malignant potential (at least 10 of the 24 enrollment slots will be reserved for subjects with mantle cell lymphoma); and • Cohort C: Relapsed and/or refractory CLL/SLL.
(§1) 24 subjects were enrolled into the CLL expansion cohort C and were assessed for safety, tolerability, DLT, PK, PD and disease response. Each subject was evaluated prior to enrollment to ensure that minimum hematological criteria were satisfied: […]

[3] = Environmental stability (heat, acid, base); format: physicochemical
CLL patients = experiment: Dose escalation study: lymph node size and absolute lymphocyte count in CLL patients; format: in vivo, human
From the text: FIG. 6 depicts the change in lymph node size in CLL patients with available lymph node assessment, twelve (12) of whom are from cohorts 1-5. These patients have experienced some degree of lymph node reduction: 2/12 patients have experienced nodal response (>50% reduction); 6/12 patients have experienced between 25 and 50% reduction over the treatment and follow-up periods indicated in the figure. The doses indicated refer to the patient's starting dose. The numbers at the top of each bar indicate the number of cycles completed for each subject as of the last available lymph node measurement.
FIG. 7 depicts the change in absolute lymphocyte count (ALC) in CLL patients. As of Sep. […] All CLL subjects with follow-up through cycle 1 at all dose levels are shown. Subjects treated with 750 mg or higher are indicated under the dotted line.

[4] = test system: relapsed or refractory B-NHL, CLL/SLL, or WM; experiment: Dose escalation study: disease progression and treatment duration; format: in vivo, human
Procedure: (§2) Intrapatient dose escalation was allowed.
Subjects with CLL experiencing nodal response with lymphocytosis (which may be related to drug-mediated lymphocyte redistribution) were also eligible for additional treatment. Subjects with WM with increasing serum Immunoglobulin M (“IgM”) levels at the end of the first 28-day cycle were also evaluated for lymphadenopathy/organomegaly and marrow infiltration. Investigators were permitted to use judgment in determining whether to continue these subjects into the second 28-day cycle if there was a discordant response between increased IgM and stable or decreased lymphadenopathy/organomegaly and marrow infiltration.

[5] = CLL expansion cohort C: DLT; format: in vivo, human; settings: 24 subjects, 750 mg po QD
Procedure: as §1

[6] = for maximum tolerated dose (MTD): dose escalation cohorts, besylate
From the text: as §2
Enrollment for Cohorts 1-5 was not restricted or contingent on the basis of specific B-NHL/CLL/WM diagnosis. […] For example, the physician-investigator may elect to rest a patient due to occurrence or recurrence of adverse events. […] In this context, treatment duration refers to the time a patient is enrolled in the study, inclusive of all rest periods, until treatment is discontinued.
Six (6) subjects diagnosed with CLL and six (6) patients diagnosed with B-NHL were enrolled in each of Cohorts 6A and 6B. Cohorts 6A and 6B were enrolled concurrently, and if meeting the requirements for continued escalation, Cohorts 7A and 7B will be enrolled and evaluated.
Hematologic DLTs included Grade 4 anemia or thrombocytopenia, Grade 4 neutropenia greater than 5 days despite granulocyte colony-stimulating factor (G-CSF) and Grade 3 or higher febrile neutropenia.
Dose escalation will continue until a DLT is observed. […] One key objective for the dose escalation portion of the study was to identify the maximum tolerated dose (MTD) and Optimal Biological Effect dose (OBE). The OBE was defined as: […]

[7] = target: Spleen tyrosine kinase (Syk) (Homo sapiens, UniProt P43405); settings: DLBCL, CLL, and mantle cell lymphoma; cited from earlier work
[8] = eleven patients from Expansion Cohort C, 750 mg QD
[9] = twelve CLL patients from cohorts 1-5 with lymph node assessment
[10] = 5/21 subjects, regardless of dose
[11] = cohort 5, 750 mg QD, initial, through May 22, 2012
[12] = cohorts 1-5 through May 22, 2012

C=CC(=O)Nc1cccc(Nc2nc(Nc3ccc(OCCOC)cc3)ncc2F)c1 [Compound 1, N-(3-(5-fluoro-2-(4-(2-methoxyethoxy)phenylamino)pyrimidin-4-ylamino)phenyl)acrylamide]
mode of BTK inhibition (Btk): covalent, irreversible inhibition of BTK
effect on B-cell proliferation and activation (B-cell): inhibit B-cell proliferation and activation

C=CC(=O)Nc1cccc(Nc2nc(Nc3ccc(OCCOC)cc3)ncc2F)c1.O=S(=O)(O)c1ccccc1 [N-(3-(5-fluoro-2-(4-(2-methoxyethoxy)phenylamino)pyrimidin-4-ylamino)phenyl)acrylamide besylate]
B-NHL patients with decreased lymph node size (B-NHL patients): Six
PK exposure (AUClast) ([1]; Day 1 to 15, once daily oral dosing): linear with no accumulation
PK ([1]; once daily oral dosing): predictable with no accumulation
solubility (Solubility of the API; ethanol, organic solvent or mixture, read-out: solubility in ethanol): ~10000 µg/mL
solubility (Solubility of the API; water, read-out: solubility in water): ~160 µg/mL
progressive disease after ([2]; cohort C, 750 mg po QD, one patient): 73 days
patients showing no disease progression ([2]; cohort C, 24 subjects, 750 mg po QD): twenty-three
CLL patients with between 25 and 50% reduction of lymph node size [2, 8]: 6/11
CLL patients with nodal response (>50% reduction of lymph node size) [2, 8]: 1/11
CLL patients with early increases (≧25%) in absolute lymphocyte counts (ALC) ([2]; of eighteen (18) patients in Expansion Cohort C, 750 mg QD, first 28-day cycle): 17 patients
environmental instabilities (i.e. heat, acid, base) that require special handling [3]: no environmental instabilities
CLL patients with early increases (≧25%) in absolute lymphocyte counts (ALC) (CLL patients; of fifteen (15) CLL patients in cohorts 1-6A/B, first 28-day cycle, as of Sep. 11, 2012): 11 patients
CLL patients with between 25 and 50% reduction of lymph node size (CLL patients; [9]): 6/12
CLL patients with nodal response (>50% reduction of lymph node size) (CLL patients; [9]): 2/12
DLT or disease progression ([4]; cohort 1 (125 mg), three CLL subjects): None of the subjects showed DLT or disease progression
progressive disease after ([4]; cohort 1 (starting 125 mg QD), three CLL patients, one value per patient, listed as API, besylate): 187 days and 319 days and 332 days
progressive disease after ([4]; cohort 2 (250 mg QD), DLBCL subject): 28 days
subjects showing no DLT or disease progression ([4]; cohort 2 (250 mg), three subjects): Two of the three
progressive disease after ([4]; cohort 3 (400 mg QD), two CLL patients, one value per patient, listed as API, besylate): 168 days and 231 days
patients showing no DLT or disease progression ([4]; cohort 3 (400 mg), six subjects, one MZL, two CLL): Three
progressive disease after ([4]; cohort 4 (625 mg QD), DLBCL patient): 33 days
progressive disease after ([4]; cohort 4 (625 mg QD), mantle cell lymphoma patient): 105 days
progressive disease after ([4]; cohort 4 (625 mg QD), two follicular lymphoma patients, one value per patient, listed as API, besylate): 56 days and 212 days
patients showing no DLT or disease progression ([4]; cohort 4 (625 mg), six subjects, follicular lymphoma): One
progressive disease after ([4]; cohort 5 (750 mg QD), MLBCL patient): 64 days
patients showing no DLT or disease progression ([4]; cohort 5 (750 mg), six subjects): Five
patients showing no DLT or disease progression ([4]; cohorts 6A and 6B (1000 mg QD / 375 mg BID), twelve subjects, as of Sep. 11, 2012): eleven
patients showing no DLT [5]: Twenty-four
treatment emergent AE: grade 1 or 2 headache [6, 10]: 23.8%
treatment emergent AE: thrombocytopenia [6, 10]: 23.8%
treatment emergent AE: grade 1 or 2 transient diarrhea ([6]; 15/21 subjects, regardless of dose): 71.4%
other DLTs ([6]; besides the follicular lymphoma patient in cohort 3): no other DLTs have occurred
serious adverse event not related to the study: disseminated Herpes zoster ([6]; cohort 1): 1 patient
serious adverse event not related to the study: pneumonia ([6]; cohort 1): 1 patient
incidence of abdominal distension ([6]; cohort 1, 125 mg QD): 1 patient
incidence of contusion (bruising) ([6]; cohort 1, 125 mg QD): 2 patients
incidence of diarrhea ([6]; cohort 1, 125 mg QD): 3 patients
incidence of dyspepsia ([6]; cohort 1, 125 mg QD): 1 patient
incidence of dyspnea ([6]; cohort 1, 125 mg QD): 1 patient
incidence of fatigue ([6]; cohort 1, 125 mg QD): 2 patients
incidence of headache ([6]; cohort 1, 125 mg QD): 2 patients
incidence of jaw pain ([6]; cohort 1, 125 mg QD): 1 patient
incidence of lymph node pain ([6]; cohort 1, 125 mg QD): 2 patients
incidence of muscle spasm ([6]; cohort 1, 125 mg QD): 1 patient
incidence of nausea ([6]; cohort 1, 125 mg QD): 1 patient
incidence of pneumonia ([6]; cohort 1, 125 mg QD): 1 patient
incidence of rash ([6]; cohort 1, 125 mg QD): 1 patient
incidence of sinusitis ([6]; cohort 1, 125 mg QD): 1 patient
incidence of thrombocytopenia ([6]; cohort 1, 125 mg QD): 1 patient
incidence of upper respiratory infection ([6]; cohort 1, 125 mg QD): 2 patients
incidence of urticaria ([6]; cohort 1, 125 mg QD): 1 patient
incidence of weight loss ([6]; cohort 1, 125 mg QD): 1 patient
serious adverse event not related to the study: atrial fibrillation ([6]; cohort 2): 1 patient
incidence of abdominal distension ([6]; cohort 2, 250 mg QD): 1 patient
incidence of cough ([6]; cohort 2, 250 mg QD): 1 patient
incidence of decreased diarrhea ([6]; cohort 2, 250 mg QD): 2 patients
incidence of dysgeusia ([6]; cohort 2, 250 mg QD): 1 patient
incidence of dyspnea ([6]; cohort 2, 250 mg QD): 1 patient
incidence of fatigue ([6]; cohort 2, 250 mg QD): 1 patient
incidence of nausea ([6]; cohort 2, 250 mg QD): 1 patient
incidence of neutropenia ([6]; cohort 2, 250 mg QD): 1 patient
incidence of pneumonia ([6]; cohort 2, 250 mg QD): 1 patient
incidence of weight loss ([6]; cohort 2, 250 mg QD): 1 patient
serious adverse event not related to the study: hematuria/urinary retention ([6]; cohort 3): 1 patient
serious adverse event not related to the study: pneumonia/thrombocytopenia/ANC decreased ([6]; cohort 3): 1 patient
dose limiting toxicity ([6]; cohort 3 (400 mg QD), follicular lymphoma subject, first 28-day cycle): thrombocytopenia (low platelet count; Grade 4)
incidence of anemia ([6]; cohort 3, 400 mg QD): 1 patient
incidence of cough ([6]; cohort 3, 400 mg QD): 2 patients
incidence of diarrhea ([6]; cohort 3, 400 mg QD): 4 patients
incidence of fatigue ([6]; cohort 3, 400 mg QD): 1 patient
incidence of headache ([6]; cohort 3, 400 mg QD): 1 patient
incidence of influenza-like illness ([6]; cohort 3, 400 mg QD): 1 patient
incidence of insomnia ([6]; cohort 3, 400 mg QD): 1 patient
incidence of jaw pain ([6]; cohort 3, 400 mg QD): 1 patient
incidence of muscle spasm ([6]; cohort 3, 400 mg QD): 1 patient
incidence of neutropenia ([6]; cohort 3, 400 mg QD): 2 patients
incidence of pneumonia ([6]; cohort 3, 400 mg QD): 1 patient
incidence of rash ([6]; cohort 3, 400 mg QD): 1 patient
incidence of thrombocytopenia ([6]; cohort 3, 400 mg QD): 3 patients
incidence of upper respiratory infection ([6]; cohort 3, 400 mg QD): 2 patients
incidence of urinary retention ([6]; cohort 3, 400 mg QD): 1 patient
incidence of urticaria ([6]; cohort 3, 400 mg QD): 1 patient
serious adverse event not related to the study: tonsillar hypertrophy ([6]; cohort 4): 1 patient
neutropenia (adverse event) leading to discontinuation, after ([6]; cohort 4 (625 mg QD), CLL patient, after three cycles): 85 days
incidence of abdominal pain ([6]; cohort 4, 625 mg QD): 2 patients
incidence of anemia ([6]; cohort 4, 625 mg QD): 1 patient
incidence of dehydration ([6]; cohort 4, 625 mg QD): 2 patients
incidence of diarrhea ([6]; cohort 4, 625 mg QD): 5 patients
incidence of dysgeusia ([6]; cohort 4, 625 mg QD): 2 patients
incidence of dyspepsia ([6]; cohort 4, 625 mg QD): 2 patients
incidence of eye pain ([6]; cohort 4, 625 mg QD): 2 patients
incidence of headache ([6]; cohort 4, 625 mg QD): 2 patients
incidence of influenza-like illness ([6]; cohort 4, 625 mg QD): 1 patient
incidence of insomnia ([6]; cohort 4, 625 mg QD): 1 patient
incidence of nausea ([6]; cohort 4, 625 mg QD): 2 patients
incidence of neutropenia ([6]; cohort 4, 625 mg QD): 1 patient
incidence of sinusitis ([6]; cohort 4, 625 mg QD): 1 patient
incidence of thrombocytopenia ([6]; cohort 4, 625 mg QD): 1 patient
incidence of urinary retention ([6]; cohort 4, 625 mg QD): 1 patient
incidence of abdominal pain [6, 11]: 1 patient
incidence of diarrhea [6, 11]: 1 patient
Grade 3-4 neutropenia [6, 12]: 3 patients
Grade 3-4 pneumonia [6, 12]: 2 patients
Grade 3-4 thrombocytopenia [6, 12]: 4 patients
maximum tolerated dose (MTD) [6]: not yet been reached
maximum tolerated dose (MTD) ([6]; listed as API): not been reached
severity of adverse events reported ([6]; except for decreased ANC (neutropenia), pneumonia and thrombocytopenia): Grade 1 and 2
Grade 3/4 adverse event: neutropenia ([6]; subjects/21, probably related): 3/21
Grade 3/4 adverse event: pneumonia ([6]; subjects/21, probably related): 2/21
Grade 3/4 adverse event: thrombocytopenia ([6]; subjects/21, probably related): 4/21

COc1cc(Nc2ncc(F)c(Nc3ccc4c(n3)N(COP(=O)(O)O)C(=O)C(C)(C)O4)n2)cc(OC)c1OC [fostamatinib disodium]
clinical response [7]: clinical responses
